Converted amounts (≈) assume the structure as drawn. Where two headings read alike, the source gives them in different places.
How the values were obtained:
physchem [1] = experiment: physchem
in vivo [2] = conditions: female, CD-1, mouse, iv; for clearance: i.v. CL
in vitro [3] = conditions: human, Caco-2
[4] = tested on: M. tuberculosis (Mtb) (H37Rv, ATCC 27294); experiment: microbe, parasite or virus in culture; assay type: cell-based; conditions: Mycobacterium tuberculosis
[5] = In vivo plasma PK after intravenous dosing; conditions: mice; for half-life: female, CD-1, mouse, plasma, iv, T1/2 (i.v)
[6] = female, CD-1, mouse, in vivo, po
[7] = In vivo lung PK after oral dosing; conditions: female, CD-1, mouse
in vivo [8] = conditions: female, CD-1, mouse, po
in vitro [9] = conditions: mouse, plasma
in vivo [10] = conditions: female, CD-1, mouse, po; remark: listed apart in the source
[11] = In vivo plasma PK after oral dosing in CM-2 formulation; conditions: female, CD-1, mouse, plasma, po
physchem [12] = conditions: pH 6.8, aqueous buffer, thermodynamic from solid
Mtb H37Rv = experiment: In vivo mouse efficacy, established murine TB model; design: species or system Balb/c mice; conditions: 100 mg/kg oral daily for 4 weeks; for Mean log lung CFU ± SEM / log reduction at 100 mg/kg: 5 animals; for Efficacy compared with PA-824, in words: significance at P<0.05; for log reduction at 100 mg/kg: Mycobacterium tuberculosis, H37RV, po, 672 h, read-out: Mean log lung CFU reduction ± SEM compared to untreated controls
Method: In vivo mouse efficacy studies were determined after intranasal infection of Balb/c mice with 10^3 cfu Mtb H37Rv. Treatment was initiated 4 weeks after infection. Compounds were orally administered in CM-2 formulation for 4 weeks daily. Bacterial loads were determined at 2 and 4 weeks post treatment. Statistical analysis was done by a one-way analysis of variance, followed by a multiple comparison analysis of variance by a one-way Tukey test (GraphPad Prism, version 5.02, San Diago, California USA, www.graphpad.com). Differences were considered statistically significant at the 95% level of confidence.

[13] = Cytotoxicity against THP1 macrophage cell lines; assay type: cell-based; conditions: human
[14] = 10 mg/kg, i.v. dosing at 10 mg/kg
[15] = 10 mg/kg, Lung to Plasma ratio AUC24
[16] = 10 mg/kg, Lung to Plasma ratio Cmax
[17] = 5 mg/kg, i.v. dosing at 5 mg/kg
[18] = 25 mg/kg, Lung to Plasma ratio AUC24
[19] = 25 mg/kg, Lung to Plasma ratio Cmax

SMILES: O=[N+]([O-])c1cn2c(n1)OC[C@@H](NCc1ccc(OC(F)(F)F)cc1)C2 [Amino-824, ((s)-2-nitro-6,7-dihydro-5H-imidazo[2,1-b][1,3]oxazin-6-yl)-(4-trifluoromethoxybenzyl)amine]
- logP (physchem [1]): 2.5
- PAMPA %FA: 91%
- PAMPA Log Pe: –4.8 cm/sec
- Vd (in vivo [2]; 10 mg/kg): 2.3 L/kg
- clearance (in vivo [2]; 10 mg/kg): 20.5 mL/min/kg
- Papp A→B (in vitro [3]): 35.4 ×10⁻⁶ cm/s
- Papp B→A (in vitro [3]): 21 ×10⁻⁶ cm/s
- efflux ratio (in vitro [3]): 0.6
- MIC99 [4]: 0.14 µg/mL (≈ 0.391 µM)
- half-life [5, 14]: 2 h
- Lung AUC24 ([6]; 10 mg/kg): 4.5 µg·h/g
- Lung Cmax ([6]; 10 mg/kg): 1.4 µg/g
- half-life ([7]; 10 mg/kg): 1.3 h
- Kp (in vivo [8]; [15]): 0.8
- Kp (in vivo [8]; [16]): 0.8
- fraction unbound (in vitro [9]): 0.2
- AUC (in vivo [10]; 10 mg/kg): 6000 ng·h/mL
- Cmax (in vivo [10]; 10 mg/kg): 1700 ng/mL
- bioavailability (in vivo [10]; 10 mg/kg): 74%
- half-life ([11]; 10 mg/kg): 2 h
- solubility (physchem [12]): 127 µg/mL (≈ 354 µM)
- Mean log lung CFU ± SEM (Mtb H37Rv): 5.14±0.08 log CFU
- Efficacy compared with PA-824, in words (Mtb H37Rv): significantly (P<0.05) less efficacious than PA-824
- log reduction at 100 mg/kg (Mtb H37Rv): 1.08 ± 0.08
- CC50 [13]: > 10 µg/mL

SMILES: O=[N+]([O-])c1cn2c(n1)OC[C@@H](NCCc1ccc(OC(F)(F)F)cc1)C2 [AminoEthyl-824]
- logP (physchem [1]): 3.6
- PAMPA %FA: 85%
- PAMPA Log Pe: –4.6 cm/sec
- Vd (in vivo [2]; 10 mg/kg): 2 L/kg
- clearance (in vivo [2]; 10 mg/kg): 44 mL/min/kg
- Papp A→B (in vitro [3]): 18.6 ×10⁻⁶ cm/s
- Papp B→A (in vitro [3]): 20.7 ×10⁻⁶ cm/s
- efflux ratio (in vitro [3]): 1.1
- MIC99 [4]: 0.06 µg/mL (≈ 0.161 µM)
- half-life [5, 14]: < 1 h
- T1/2 (i.v) ([5]; i.v. dosing at 10 mg/kg, 10 mg/kg): 0.7 h
- Lung AUC24 ([6]; 10 mg/kg): 5.2 µg·h/g
- Lung Cmax ([6]; 10 mg/kg): 1.6 µg/g
- half-life ([7]; 10 mg/kg): 1.2 h
- Kp (in vivo [8]; [15]): 1.8
- Kp (in vivo [8]; [16]): 1.6
- fraction unbound (in vitro [9]): 0.55
- AUC (in vivo [10]; 10 mg/kg): 2900 ng·h/mL
- Cmax (in vivo [10]; 10 mg/kg): 1000 ng/mL
- bioavailability (in vivo [10]; 10 mg/kg): 76%
- half-life ([11]; 10 mg/kg): 1.7 h
- solubility (physchem [12]): 104 µg/mL (≈ 279 µM)
- Mean log lung CFU ± SEM (Mtb H37Rv): 4.53±0.07 log CFU
- Efficacy compared with PA-824, in words (Mtb H37Rv): comparable efficacy to PA-824
- log reduction at 100 mg/kg (Mtb H37Rv): 1.69 ± 0.07
- CC50 [13]: > 10 µg/mL

SMILES: CC[C@@H]1Oc2nc([N+](=O)[O-])cn2C[C@@H]1OCc1ccc(OC(F)(F)F)cc1 [NI-145]
- logP (physchem [1]): 3.85
- PAMPA %FA: 99%
- PAMPA Log Pe: –3.85 cm/sec
- Vd (in vivo [2]; 5 mg/kg): 1.7 L/kg
- clearance (in vivo [2]; 5 mg/kg): 17 mL/min/kg
- MIC99 [4]: 0.06 µg/mL (≈ 0.155 µM)
- half-life [5, 17]: 2 h
- Lung AUC24 ([6]; 25 mg/kg): 34.6 µg·h/g
- Lung Cmax ([6]; 25 mg/kg): 4.2 µg/g
- half-life ([7]; 25 mg/kg): 4.1 h
- Tmax (in vivo [8]; 25 mg/kg): 2 h
- Kp (in vivo [8]; [18]): 2.1
- Kp (in vivo [8]; [19]): 2.3
- AUC (in vivo [10]; 25 mg/kg): 16200 ng·h/mL
- Cmax (in vivo [10]; 25 mg/kg): 1800 ng/mL
- Tmax (in vivo [10]; 25 mg/kg): 2 h
- bioavailability (in vivo [10]; 25 mg/kg): 68%
- half-life ([11]; 25 mg/kg): 4.2 h
- solubility (physchem [12]): < 2 µg/mL
- CC50 [13]: > 10 µg/mL

SMILES: CC[C@@H]1Oc2nc([N+](=O)[O-])cn2C[C@@H]1NCc1ccc(OC(F)(F)F)c(F)c1 [NI-176]
- logP (physchem [1]): 3.5
- PAMPA %FA: 99%
- PAMPA Log Pe: –3.7 cm/sec
- Vd (in vivo [2]; 5 mg/kg): 1.8 L/kg
- clearance (in vivo [2]; 5 mg/kg): 22.2 mL/min/kg
- MIC99 [4]: 0.03 µg/mL (≈ 0.0742 µM)
- half-life [5, 17]: 1 h
- Lung AUC24 ([6]; 25 mg/kg): 30.3 µg·h/g
- Lung Cmax ([6]; 25 mg/kg): 4.8 µg/g
- half-life ([7]; 25 mg/kg): 4.3 h
- Kp (in vivo [8]; [18]): 2.2
- Kp (in vivo [8]; [19]): 2.2
- AUC (in vivo [10]; 25 mg/kg): 13700 ng·h/mL
- Cmax (in vivo [10]; 25 mg/kg): 2200 ng/mL
- bioavailability (in vivo [10]; 25 mg/kg): 86%
- half-life ([11]; 25 mg/kg): 4.3 h
- solubility (physchem [12]): 8 µg/mL (≈ 19.8 µM)
- CC50 [13]: > 10 µg/mL

From article PMC4139342, “Pharmacokinetics-Pharmacodynamics Analysis of Bicyclic 4-Nitroimidazole Analogs in a Murine Model of Tuberculosis” (PLoS ONE, 2014)
